# Experimental data: US9422239B1, “Dual PPAR-δ PPAR-γ agonists” (Auburn University, priority 2013, dated 2016)
# Columns and labels:
# [1] = Heart size (heart weight to body weight ratio); format: in vivo; settings: 10 mg/kg oral daily for 1 month, wild type and db/db mice
# Protocol: Diabetic db/db mice were fed a normal rodent chow diet. […] Mice were then weighed and their hearts were extracted and weighed. The heart weight of the mice compared to the body weight of the mice was then calculated based upon heart weight to body weight ratio.
# [2] = in vivo; cited from earlier work
# [3] = Biodistribution by LC-Mass Spectral analysis; settings: mice, 3 mg/kg (table); for concentration at 4 h: mouse, po, 3 mg/kg
# db/db mice = experiment: Hippocampal slice electrophysiology (LTP, PTP); format: in vivo
# 3T3-L1 adipocytes = experiment: Lipid accumulation by oil red-o staining; format: cell-based; settings: 6 days, oil red-o stain
# Protocol: 3T3L1 adipocytes were cultured and treated with the novel compounds for a period of 6 days. Lipid accumulation was determined by oil red-o staining, and measured the absorbance spectrophotometrically at a wavelength of 510 nm and standardized to total protein concentrations. Data from lipid accumulation studies were compared to cells treated with rosiglitazone (a full PPARγ agonist).
# PPARγ (AP2-PPRE) = molecular target: T1, PPARγ (AP2-PPRE) (Homo sapiens, UniProt P37231); experiment: AP2-PPRE luciferase assay in HEK-293 cells; format: cell-based; settings: luciferase assay, HEK-293 cells, 10 μM
# T1 construct: expressed in transfected cells; host or cells: HEK-293
# T1 sequence (P37231 1-505): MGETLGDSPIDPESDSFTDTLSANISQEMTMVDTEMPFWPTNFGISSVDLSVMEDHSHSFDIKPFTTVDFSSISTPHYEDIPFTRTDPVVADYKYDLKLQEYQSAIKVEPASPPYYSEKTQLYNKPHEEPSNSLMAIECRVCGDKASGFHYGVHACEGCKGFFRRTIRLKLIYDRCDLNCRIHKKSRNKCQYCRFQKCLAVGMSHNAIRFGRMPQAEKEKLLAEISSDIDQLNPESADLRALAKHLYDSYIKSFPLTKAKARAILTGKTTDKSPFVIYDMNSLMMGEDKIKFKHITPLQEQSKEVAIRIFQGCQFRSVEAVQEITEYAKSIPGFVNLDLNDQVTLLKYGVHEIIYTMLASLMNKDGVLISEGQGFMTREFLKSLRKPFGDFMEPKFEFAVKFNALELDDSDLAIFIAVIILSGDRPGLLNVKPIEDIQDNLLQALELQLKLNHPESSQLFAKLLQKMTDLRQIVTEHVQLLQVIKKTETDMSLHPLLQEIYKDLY
# T1 sequence (P19793 1-462 partner): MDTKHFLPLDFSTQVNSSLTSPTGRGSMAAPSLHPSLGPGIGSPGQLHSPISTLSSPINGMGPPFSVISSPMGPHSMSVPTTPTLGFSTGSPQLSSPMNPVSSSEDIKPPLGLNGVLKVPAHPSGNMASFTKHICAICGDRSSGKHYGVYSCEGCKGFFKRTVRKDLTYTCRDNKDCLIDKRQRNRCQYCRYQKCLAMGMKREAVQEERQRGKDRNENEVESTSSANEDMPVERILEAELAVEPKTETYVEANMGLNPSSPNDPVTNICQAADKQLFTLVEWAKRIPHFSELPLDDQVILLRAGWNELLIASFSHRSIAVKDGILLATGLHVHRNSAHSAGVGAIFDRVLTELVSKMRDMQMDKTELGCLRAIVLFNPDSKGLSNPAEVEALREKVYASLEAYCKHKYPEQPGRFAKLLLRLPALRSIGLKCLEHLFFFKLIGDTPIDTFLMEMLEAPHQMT
# Excerpt: (§1) To validate the specificity of the novel compounds towards activation of PPARγ/δ targets, we tested the compounds capacity to bind to select PPARγ/δ Peroxisome Proliferator Response Elements (PPRE). The PPRE are unique sites located in the promoter region where PPARs bind and transcriptionally activate the target genes. AP2-PPRE is the PPARγ target involved in adipocyte growth and differentiation. PDK4-PPRE is a PPARδ target involved in regulating energy metabolism in the cell. These PPREs were inserted into a PGL3 luciferase vectors containing CMV promoters (ADDGENE) using PCR. These vectors were co-transfected with RXR, PPARγ/PPARδ and p-galactosidase vectors into HEK-293 cells using Lipofectamine 2000 (Invitrogen). Relative light units (RLU) were measured using a Glomax Luminometer (Promega). Data were standardized to p-galactosidase activity using ONPG (Promega).
# PPARδ (PDK4-PPRE) = molecular target: T2, PPARδ (PDK4-PPRE) (Homo sapiens, UniProt Q03181); experiment: PDK4-PPRE luciferase assay in HEK-293 cells; format: cell-based
# T2 construct: expressed in transfected cells; host or cells: HEK-293
# T2 sequence (Q03181 1-441): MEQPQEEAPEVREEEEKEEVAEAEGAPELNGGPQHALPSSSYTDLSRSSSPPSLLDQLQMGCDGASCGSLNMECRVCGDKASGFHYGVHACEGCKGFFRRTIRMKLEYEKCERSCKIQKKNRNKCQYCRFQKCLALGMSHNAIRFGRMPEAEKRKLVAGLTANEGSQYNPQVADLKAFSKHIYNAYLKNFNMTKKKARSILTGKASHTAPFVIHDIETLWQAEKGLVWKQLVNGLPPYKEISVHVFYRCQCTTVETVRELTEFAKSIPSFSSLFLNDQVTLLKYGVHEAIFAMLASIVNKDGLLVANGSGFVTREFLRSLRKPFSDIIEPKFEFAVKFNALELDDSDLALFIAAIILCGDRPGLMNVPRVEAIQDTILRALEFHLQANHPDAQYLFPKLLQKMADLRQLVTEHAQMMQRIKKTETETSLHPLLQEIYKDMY
# T2 sequence (P19793 1-462 partner): T1 sequence (P19793 1-462 partner)
# Excerpt: as §1
# [4] = tested on: C2C12 skeletal muscle cells; experiment: Mitochondrial biogenesis markers by quantitative RT-PCR; format: cell-based; settings: 4 days
# Protocol: Therefore, to test the effects of the novel compounds on mitochondrial biogenesis, C2C12 skeletal muscle cells were cultured and treated with the novel compounds for 4 days. Changes associated with markers for mitochondrial biogenesis were determined by quantitative real time PCR.
smiles,measurement,setting,value
"CN(CCOc1ccc(CC2SC(=O)NC2=O)cc1)c1ccccn1 (stereo not shown) [Rosiglitazone, rosiglitazone, reference compound]",Heart size,[1],increase in heart size
same,Half-life,[2],4 h
same,Concentration,"[3]; Brain, oral, 4 hours",Not Detected
same,concentration at 4 h,"[3]; adipose, Concentration",13 ng/mL
same,concentration at 4 h,"[3]; adipose, Tissue Concentration",5 ng/mL
same,concentration at 4 h,"[3]; adipose, Tissue Distribution",2.24 ng/mL
same,concentration at 4 h,"[3]; blood, Concentration",247 ng/mL
same,concentration at 4 h,"[3]; heart, Concentration",12.8 ng/mL
same,concentration at 4 h,"[3]; heart, Tissue Concentration",2.12 ng/mL
same,concentration at 4 h,"[3]; heart, Tissue Distribution",0.64 ng/mL
same,concentration at 4 h,"[3]; liver, Concentration",250 ng/mL
same,concentration at 4 h,"[3]; liver, Tissue Concentration",8.89 ng/mL
same,concentration at 4 h,"[3]; liver, Tissue Distribution",4.95 ng/mL
same,Amelioration of LTP reduction,db/db mice; ICV,> 50%
same,Change in the slope of fEPSP after sixty minutes of induction of LTP,db/db mice; ICV,148.33±2.5%
same,fEPSP slope (LTP studies),db/db mice; oral,126±5.3%
COc1ccc(CN(CCN2C(=O)c3ccccc3C2=O)S(=O)(=O)c2c(C)cc(C)cc2C)cc1 [Compound 3-91],Lipid accumulation,3T3-L1 adipocytes,comparable to rosiglitazone
same,Binding affinity for the AP2-PPRE,PPARγ (AP2-PPRE),strong binding affinity
same,Binding affinity for the PDK4-PPRE,PPARδ (PDK4-PPRE),less binding affinity
CCOC(CNCc1ccc(C(F)(F)F)cc1)OCC [Compound 3-121],Lipid accumulation,3T3-L1 adipocytes,less lipid accumulation
same,Lipid accumulation,3T3-L1 adipocytes; listed as compound 3-121,insignificant induction of adiposity
same,Binding affinity for the AP2-PPRE,PPARγ (AP2-PPRE),less binding affinity
same,Binding affinity for the PDK4-PPRE,PPARδ (PDK4-PPRE),less binding affinity
"Cc1cc(SCc2sc(-c3ccc(C(F)(F)F)c(F)c3)nc2C)ccc1OCC(=O)O [GW0742, reference compound]",Gene expression of mitochondrial markers,[4],increases
CC(C(=O)O)c1ccc(CNCc2ccc(Cl)c(Cl)c2)cc1 (stereo not shown) [Compound 4-23],Lipid accumulation,3T3-L1 adipocytes,less lipid accumulation
